Assay results reported in US9523100B2, “Pesticidal compositions and related methods” (DOW AGROSCIENCES LLC, priority 2013, dated 2016).

Legend:
[1] = system: Green Peach Aphid (GPA) (Myzus persicae) (MYZUPE); assay: Bioassay for Green Peach Aphid (GPA), foliar spray on cabbage seedlings; assay type: in vivo; details: 72 h, 200 ppm foliar spray on cabbage seedlings, graded after three days, Abbott corrected % control, read-out: GPA 200 ppm, % Control (or Mortality) rating
In short: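 Cabbage seedlings infested with 20-50 GPA (wingless adults and nymphs) one day before spraying to runoff with 200 ppm compound; four pots per treatment. Live aphids counted after three days at ~25° C; percent control by Abbott's correction against solvent-sprayed plants.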

[2] = system: Sweetpotato Whitefly-Crawler (WF) (Bemisia tabaci) (BEMITA); assay: Insecticidal test for Sweetpotato Whitefly-Crawler (WF) in foliar spray assay on cotton plants; assay type: in vivo; details: 216 h, 200 ppm foliar spray on cotton plants, graded after 9 days, Abbott corrected % control, read-out: WF 200 ppm, % Control (or Mortality) rating
In short: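 Cotton plants carrying 200–400 whitefly eggs sprayed to run-off on both leaf surfaces at 200 ppm (acetone/0.025% Tween 20), four plants per treatment. After 9 days at about 25 °C, live 3rd–4th instar nymphs counted; Abbott-corrected percent control versus solvent check.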

In the case of `CCN(C(=O)CCC(=O)NC1CC1C(F)(F)F)c1cn(-c2cccnc2)nc1Cl` (centres unmarked) [Compound F54, N1-(3-Chloro-1-(pyridin-3-yl)-1H-pyrazol-4-yl)-N1-ethyl-N4-(2-(trifluoromethyl)cyclopropyl) succinamide], the mortality at 200 ppm [1] is reported as 80 to 100% and the mortality at 200 ppm [2] is reported as 80 to 100%.
For `CCN(C(=O)CCC(=O)N(C)CC#N)c1cn(-c2cccnc2)nc1Cl` [Compound F55, N1-(3-Chloro-1-(pyridin-3-yl)-1H-pyrazol-4-yl)-N4-(cyanomethyl)-N1-ethyl-N4-methylsuccinamide], the mortality at 200 ppm [1] was 0 to 80% and the mortality at 200 ppm [2] was 80 to 100%.
`CCN(C(=O)CCNC(=O)C1CC1(F)F)c1cn(-c2cccnc2)nc1Cl` (centres unmarked) [Compound F56, N-(3-((3-Chloro-1-(pyridin-3-yl)-1H-pyrazol-4-yl)(ethyl)amino)-3-oxopropyl)-2,2-difluorocyclopropanecarboxamide] showed a mortality at 200 ppm [1] of 80 to 100% and a mortality at 200 ppm [2] of 80 to 100%.
`CCN(C(=O)CNC(=O)CC(F)(F)F)c1cn(-c2cccnc2)nc1Cl` [Compound F57, N-(2-((3-Chloro-1-(pyridin-3-yl)-1H-pyrazol-4-yl)(ethyl)amino)-2-oxoethyl)-3,3,3-trifluoropropanamide] showed a mortality at 200 ppm [1] of 80 to 100% and a mortality at 200 ppm [2] of 80 to 100%.
In the case of `CCN(C(=O)CCCC1CNC1=O)c1cn(-c2cccnc2)nc1Cl` (centres unmarked) [Compound F58], the mortality at 200 ppm [1] is reported as 80 to 100% and the mortality at 200 ppm [2] is reported as 80 to 100%.
`CCN(C(=O)CC/C(C)=N/Oc1cccc(C(F)(F)F)n1)c1cn(-c2cccnc2)nc1Cl` [Compound F59, (E/Z)-N-(3-Chloro-1-(pyridin-3-yl)-1H-pyrazol-4-yl)-N-ethyl-4-(((6-(trifluoromethyl)pyridin-2-yl)oxy)imino)pentanamide] gave a mortality at 200 ppm [1] of 80 to 100% and a mortality at 200 ppm [2] of 80 to 100%.
Work on `CCN(C(=O)C1CCN(C(C)=O)CC1)c1cn(-c2cccnc2)nc1Cl` [Compound F61, 1-Acetyl-N-(3-chloro-1-(pyridin-3-yl)-1H-pyrazol-4-yl)-N-ethylpiperidine-4-carboxamide] yielded a mortality at 200 ppm [1] of 80 to 100% and a mortality at 200 ppm [2] of 0 to 80%.
`Cc1nn(-c2cccnc2)cc1N(C)C(=O)CCC(=O)N(C)C` [Compound F62, N1,N1,N4-trimethyl-N4-(3-methyl-1-(pyridin-3-yl)-1H-pyrazol-4-yl)succinamide] showed a mortality at 200 ppm [1] of 80 to 100% and a mortality at 200 ppm [2] of 80 to 100%.
For `CCN(C(=O)CCNC(=O)CC(F)(F)F)c1cn(-c2cccnc2)nc1Cl` [Compound F63, N-(3-((3-Chloro-1-(pyridin-3-yl)-1H-pyrazol-4-yl)(ethyl)amino)-3-oxopropyl)-3,3,3-trifluoropropanamide], the mortality at 200 ppm [1] was 80 to 100% and the mortality at 200 ppm [2] was 80 to 100%.
Work on `CCN(C(=O)CCN(C)C(C)=O)c1cn(-c2cccnc2)nc1Cl` [Compound F64, N-(3-chloro-1-(pyridin-3-yl)-1H-pyrazol-4-yl)-N-ethyl-3-(N-methylacetamido) propanamide] yielded a mortality at 200 ppm [1] of 80 to 100% and a mortality at 200 ppm [2] of 80 to 100%.
`CCN(C(=O)CCNC(=O)/C=C/C(F)(F)F)c1cn(-c2cccnc2)nc1Cl` [Compound F65, (E)-N-(3-((3-Chloro-1-(pyridin-3-yl)-1H-pyrazol-4-yl)(ethyl)amino)-3-oxopropyl)-4,4,4-trifluorobut-2-enamide] showed a mortality at 200 ppm [1] of 80 to 100% and a mortality at 200 ppm [2] of 80 to 100%.
For `CCN(C(=O)C(C)N(C)C(=O)CC(F)(F)F)c1cn(-c2cccnc2)nc1Cl` (centres unmarked) [Compound F66, N-(1-((3-Chloro-1-(pyridin-3-yl)-1H-pyrazol-4-yl)(ethyl)amino)-1-oxopropan-2-yl)-3,3,3-trifluoro-N-methylpropanamide], the mortality at 200 ppm [1] was 80 to 100% and the mortality at 200 ppm [2] was 80 to 100%.
Work on `CCN(C(=O)CCC(=O)NCC(F)(F)F)c1cn(-c2cccnc2)nc1Cl` [Compound F67, N1-(3-Chloro-1-(pyridin-3-yl)-1H-pyrazol-4-yl)-N1-ethyl-N4-(2,2,2-trifluoroethyl)succinamide] yielded a mortality at 200 ppm [1] of 80 to 100% and a mortality at 200 ppm [2] of 80 to 100%.
